# In paper PMC10349806 (Nature Communications, 2023):
# Several values for one entry are separate records, joined by “and”; a condition that tells them apart may be missing. Equal values may be shown once.
# Legend:
# [1] = biological target: T1, PfCRT variant Y89A (Plasmodium falciparum, UniProt Q9N623, A220S/I356T/K76T/M74I/N326S/N75E/Q271E/R371I/Y89A); experiment: CQ uptake assay, oocytes expressing Y89A; format: cell-based
# T1 sequence (Q9N623 1-424 M74I/N75E/K76T/Y89A/A220S/Q271E/N326S/I356T/R371I): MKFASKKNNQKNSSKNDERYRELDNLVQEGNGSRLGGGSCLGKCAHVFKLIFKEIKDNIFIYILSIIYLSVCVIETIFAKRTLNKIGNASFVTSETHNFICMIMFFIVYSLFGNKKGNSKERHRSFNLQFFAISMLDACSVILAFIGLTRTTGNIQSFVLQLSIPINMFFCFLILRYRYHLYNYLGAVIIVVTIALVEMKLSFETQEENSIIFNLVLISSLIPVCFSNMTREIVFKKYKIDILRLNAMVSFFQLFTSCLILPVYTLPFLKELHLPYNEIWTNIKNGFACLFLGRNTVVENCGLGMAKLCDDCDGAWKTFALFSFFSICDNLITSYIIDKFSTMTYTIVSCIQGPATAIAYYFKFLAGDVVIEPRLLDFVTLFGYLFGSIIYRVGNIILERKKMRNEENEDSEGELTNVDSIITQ
# Method: (§1) Site-directed mutagenesis of PfCRT^Dd2 was performed as described using the megaprimer method with overlap extension[21],[54]. The primer pairs used are listed in Supplementary Table 6. Please note that a codon-optimized and oocyte-adapted version of PfCRT^Dd2 was used[22] (Supplementary Fig. 16). The resulting DNA fragment was cloned into the SP64T expression vector and verified by sequencing.
# (§2) Oocytes were obtained as described previously. Briefly, adult (>2 years old) female X. laevis frogs (NASCO) were anesthetized in a cooled solution of ethyl 3-amino benzoate methanesulfonate (0.1%, w/v), followed by a surgical removal of parts of the ovary. The ovary lobes were carefully dissected and small pieces of oocytes were incubated in Ca^2+-free ND96 buffer (96 mM NaCl, 2 mM KCl, 1 mM MgCl2 buffered with 5 mM HEPES/NaOH, pH 7.5) supplemented with collagenase D (0.1%, w/v; Roche), BSA (0.5%, w/v), and 9 mm Na2HPO4 at 18 °C for 14-16 h while gentle shaking. After incubation, the oocytes were carefully washed several times with ND96 buffer (96 mM NaCl, 2 mM KCl, 1.8 mM CaCl2, 1 mM MgCl2 buffered with 5 mM HEPES/NaOH, pH 7.5) supplemented with 100 mg l^−1 gentamycin). Defolliculated and healthy-looking stage V-VI oocytes were manually selected for RNA microinjection. The RNA was generated as following: The codon-optimized sequences of PfCRT variants were cloned into the pSP64T expression vector. After vector linearization using the restriction endonucleases BamHI or SalI (New England Biolabs), transcription was performed using the in vitro SP6 mMessage mMachine Kit (Ambion)[34]. The obtained RNA was kept at −80 °C and diluted with nuclease-free water to a concentration of 0.6 μg μl^−1. Precision-bore glass capillary tubes (3.5-inch glass capillaries; Drummond Scientific Co.) were pulled on a vertical puller (P-87 Flaming/Brown micropipette puller, Sutter Instrument Co.), graduated, and placed on a microinjector (Nanoject II Auto-Nanoliter Injector, Drummond Scientific Co.). 50 nl of nuclease-free water alone (control oocytes) or 50 nl of 0.6 μg μl^−1 RNA were injected under stereomicroscopic control. Injected oocytes were incubated for 46–72 h at 18 °C with twice-daily buffer changes before usage in experiments.
# Drug uptake assays were performed as described previously[21],[22],[24],[34]. […] The direction of radio-labeled drug transport is here from the mostly acidic extracellular solution (pH 4.5 or 6.0, as indicated) into the oocyte cytosol (pH ∼ 7.2), which corresponds to the efflux of drug from the acidic digestive vacuole (pH 5.2) into the parasite cytoplasm (pH 7.2). The topology of PfCRT in the oolemma is such that both the N- and C-terminus face the extracellular milieu[3],[22]. In the parasite, the N- and C-terminus face the lumen of the digestive vacuole. […] For determination of the amount of drug uptake for each oocyte, the reaction medium was removed and the oocytes were washed three times with 2 ml of ice-cold ND96 buffer. Each oocyte was individually transferred to a scintillation vial containing 5% sodium dodecyl sulfate (200 μl) for lysis. […] Oocytes that were injected with water instead of RNA were analyzed in parallel, representing the uptake of a drug by diffusion and/or endogenous permeation pathways. […] The specific PfCRT-mediated uptake was determined by subtracting the corresponding background value measured in water-injected oocytes from that of PfCRT-expressing oocytes. […]
# [2] = system: PfCRT variant E207N; experiment: CQ uptake assay, oocytes expressing E207N; format: cell-based, Plasmodium falciparum
# Method: as §1, §2
# Drug uptake assays were performed as described previously[21],[22],[24],[34]. […] The direction of radio-labeled drug transport is here from the mostly acidic extracellular solution (pH 4.5 or 6.0, as indicated) into the oocyte cytosol (pH ∼ 7.2), which corresponds to the efflux of drug from the acidic digestive vacuole (pH 5.2) into the parasite cytoplasm (pH 7.2). The topology of PfCRT in the oolemma is such that both the N- and C-terminus face the extracellular milieu[3],[22]. In the parasite, the N- and C-terminus face the lumen of the digestive vacuole. CQ uptake kinetics were performed by incubating oocytes in ND96 buffer adjusted to a pH of 4.5, 5.0, 5.5, or 6.0 and supplemented with 50 nM [^3H]CQ and one of 7 different CQ concentrations (10 µM, 50 µM, 100 µM, 200 µM, 300 µM, 400 µM, 500 µM CQ). The reaction was stopped at the 60 min time point, which is in the linear uptake range[22],[34] (Supplementary Fig. 17). For determination of the amount of drug uptake for each oocyte, the reaction medium was removed and the oocytes were washed three times with 2 ml of ice-cold ND96 buffer. Each oocyte was individually transferred to a scintillation vial containing 5% sodium dodecyl sulfate (200 μl) for lysis. The radioactivity of each sample was measured using a liquid scintillation analyzer Tri-Carb 4910 TR (PerkinElmer). Oocytes that were injected with water instead of RNA were analyzed in parallel, representing the uptake of a drug by diffusion and/or endogenous permeation pathways. The resulting value represents the “background“ level of drug accumulation in oocytes (in-depth discussion in[22]). […]
# [3] = E207N, 50 µM CQ, 1 h, mean ± SEM
smiles,measurement,setting,value
"CCN(CC)CCCC(C)Nc1ccnc2cc(Cl)ccc12 (centres unmarked) [CQ, chloroquine]",Activity at pH 4.5,"[1]; Y89A, 50 µM CQ, 1 h, mean ± SEM",0.73 ± 0.05 pmol h-1 oocyte-1
same,R-value,"[1]; Y89A, CQ transport at pH 4.5 / pH 6.0",0.43 ± 0.06
same,Y89A transport activity pH 4.5,"[1]; pH 4.5, single replicates, Fig 1d left",0.79 pmol oocyte-1 h-1 and 0.80 pmol oocyte-1 h-1 and 0.60 pmol oocyte-1 h-1
same,Y89A R-value,"[1]; pH 4.5 vs pH 6.0, Fig 1d left",0.47 and 0.40 and 0.37
same,Y89A transport activity pH 6.0,"[1]; pH 6.0, single replicates, Fig 1d left",1.68 pmol oocyte-1 h-1 and 1.99 pmol oocyte-1 h-1 and 1.64 pmol oocyte-1 h-1
same,Activity at pH 4.5,[2]; [3],2.54 ± 0.34 pmol h-1 oocyte-1
same,Activity at pH 6.0,[2]; [3],2.81 ± 0.43 pmol h-1 oocyte-1
same,R-value,"[2]; E207N, CQ transport at pH 4.5 / pH 6.0",0.93 ± 0.07
same,E207N transport activity pH 4.5,"[2]; pH 4.5, individual replicates, Fig 6b",3.35 pmol oocyte-1 h-1 and 2.62 pmol oocyte-1 h-1 and 1.45 pmol oocyte-1 h-1 and 2.72 pmol oocyte-1 h-1
same,E207N transport activity pH 6.0,"[2]; pH 6.0, individual replicates, Fig 6b",3.09 pmol oocyte-1 h-1 and 3.00 pmol oocyte-1 h-1 and 1.41 pmol oocyte-1 h-1 and 3.72 pmol oocyte-1 h-1
same,E207NR-value,[2]; ratio of activity pH 4.5 / pH 6.0,1.08 and 0.87 and 1.03 and 0.73
